Activity calls are given as the source filed them.
Columns and labels:
[1] = target: Glyceraldehyde-3-phosphate dehydrogenase (Homo sapiens, UniProt P04406)
[2] = target: T1, Bcl-2-related protein A1 (Mus musculus, UniProt Q07440); assay: Bfl-1 binding inhibitors, SAR follow-up, biochemical, fluorescence polarization (AID 1070)
T1 sequence (Q07440 whole entry): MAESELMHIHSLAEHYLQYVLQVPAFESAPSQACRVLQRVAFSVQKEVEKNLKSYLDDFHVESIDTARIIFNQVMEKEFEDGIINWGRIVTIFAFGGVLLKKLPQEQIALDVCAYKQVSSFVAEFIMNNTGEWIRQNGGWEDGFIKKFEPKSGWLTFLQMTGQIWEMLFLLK

[3] = target: T1, Bcl-2-related protein A1; assay: small-molecule antagonists of Bfl-1/BH3 interaction – biochemical, TR-FRET, mouse Bfl-1, confirmation (AID 621);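 note: TR-FRET binding of GST-Bfl-1 to FITC-labelled Bid peptide via terbium antibody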
[4] = target: T2, Ubiquitin-conjugating enzyme E2 N (Homo sapiens, UniProt P61088); type: functional
T2 sequence (P61088 whole entry): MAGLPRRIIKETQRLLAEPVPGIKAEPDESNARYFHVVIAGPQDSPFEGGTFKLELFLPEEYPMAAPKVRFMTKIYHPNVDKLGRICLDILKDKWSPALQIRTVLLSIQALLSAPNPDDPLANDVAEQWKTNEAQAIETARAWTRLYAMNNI

[5] = target: T2, Ubiquitin-conjugating enzyme E2 N; type: functional; remark: listed apart in the source
[6] = target: T1, Bcl-2-related protein A1; type: functional
[7] = viability loss in Vero cells – cytotoxicity control for Vif-APOBEC3G degradation inhibitor project, dose response (AID 1117358); type: functional; conditions: Vero
[8] = target: T3, Protein Tat (Human immunodeficiency virus type 1 group M subtype B (isolate HXB2)(HIV-1), UniProt P04608); type: functional;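 note: tat binding to TAR RNA read out by fluorescence polarization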
T3 sequence (P04608 whole entry): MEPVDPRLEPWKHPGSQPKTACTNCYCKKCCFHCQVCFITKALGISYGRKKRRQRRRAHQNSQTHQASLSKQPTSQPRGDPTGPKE

[9] = antiviral protection against BTV-induced cell death – arbovirus, BSR cells, confirmation (AID 1250); type: functional;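 note: protection from viral cytopathic effect measured as cell viability by ATP luminescence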
[10] = system: H4; assay: Luminescence Cell-Based Dose Response HTS to Identify Activators of 5'UTR Stem-Loop Driven Prion Protein mRNA Translation in H4 Neuroglioblastoma Cells. [Related pubchem assays: 1829 (Project Summary), 1814 (Primary HTS)]; type: functional; conditions: Homo sapiens
[11] = Luminescence Cell-Based Dose Confirmation to Identify Activators of 5'UTR Stem-Loop Driven Alpha-Synuclein mRNA Translation in H4 Neuroglioblastoma Cells. [Related pubchem assays: 1829 (Project Summary), 1814 (Primary HTS)]; type: functional
[12] = Luminescence Cell-Based Dose Response to Identify Activators of Luciferase Translation or Activity in H4-C Neuroglioblastoma Cells. [Related pubchem assays: 1829 (Project Summary), 1814 (Primary HTS)]; type: functional
[13] = Luminescence Cell-Based Dose Response HTS to Identify Activators of Luciferase Translation or Activity in H4 […] Cells. [Related pubchem assays: 1829 (Project Summary), 1814 (Primary HTS)]; type: functional
[14] = Luminescence Cell-Based Dose Response to Identify Activators of 5'UTR Stem-Loop Driven Prion Protein mRNA Translation in H4-C Neuroglioblastoma Cells. [Related pubchem assays: 1829 (Project Summary), 1814 (Primary HTS)]; type: functional
[15] = Luminescence Cell-Based Dose Confirmation HTS to Identify Activators of 5'UTR Stem-Loop Driven Alpha-Synuclein mRNA Translation in H4 Neuroglioblastoma Cells. [Related pubchem assays: 1829 (Project Summary), 1814 (Primary HTS)]; type: functional
[16] = system: H9c2; assay: cells; type: functional, cell-based; conditions: Rattus norvegicus, H9c2, Myocardium;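 note: confirmatory concentration-response retest of ultra-high-throughput screening hits for modulation of myocardial damage; cell death induced by hydrogen peroxide oxidative stress; compound pretreatment for 60 min then peroxide exposure for 2 h; potency is for protecting the cells against peroxide damage rather than for killing them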
[17] = microbe, parasite or virus in culture; type: functional; conditions: Mycobacterium tuberculosis
[18] = target: T4, Heat shock factor protein 1 (Mus musculus, UniProt P38532); assay: enhancement of HSF1-driven luciferase signal – cell-based, NIH3T3, luminescence, dose retest, confirmation (AID 435004); type: functional;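 note: stress induced by proteasome inhibitor MG132 added 30 min after compound; luciferase reporter driven by HSF1 response element in NIH3T3 cells; actives raise luminescence as potentiators of the MG132 stress response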
T4 sequence (P38532 whole entry): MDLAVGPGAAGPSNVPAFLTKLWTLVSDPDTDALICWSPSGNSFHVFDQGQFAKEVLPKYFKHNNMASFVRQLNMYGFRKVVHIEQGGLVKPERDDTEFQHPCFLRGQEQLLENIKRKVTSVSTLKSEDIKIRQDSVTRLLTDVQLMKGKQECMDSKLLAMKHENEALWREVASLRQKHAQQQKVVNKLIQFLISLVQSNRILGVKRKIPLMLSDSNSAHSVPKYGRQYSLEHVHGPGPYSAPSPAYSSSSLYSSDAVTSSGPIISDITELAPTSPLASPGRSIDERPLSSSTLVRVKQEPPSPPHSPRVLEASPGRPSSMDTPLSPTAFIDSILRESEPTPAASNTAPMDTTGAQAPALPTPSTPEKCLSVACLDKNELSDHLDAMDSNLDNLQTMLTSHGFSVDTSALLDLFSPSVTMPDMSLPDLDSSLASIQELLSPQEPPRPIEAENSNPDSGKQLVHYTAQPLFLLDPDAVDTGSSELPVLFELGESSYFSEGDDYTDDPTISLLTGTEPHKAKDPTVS

[19] = target: T5, Replicative DNA helicase DnaB (Mycobacterium tuberculosis, UniProt P9WMR3); assay: DnaB intein splicing inhibitors, dose response, biochemical, cell-free fluorescence (AID 449749); type: functional
T5 sequence (P9WMR3 whole entry): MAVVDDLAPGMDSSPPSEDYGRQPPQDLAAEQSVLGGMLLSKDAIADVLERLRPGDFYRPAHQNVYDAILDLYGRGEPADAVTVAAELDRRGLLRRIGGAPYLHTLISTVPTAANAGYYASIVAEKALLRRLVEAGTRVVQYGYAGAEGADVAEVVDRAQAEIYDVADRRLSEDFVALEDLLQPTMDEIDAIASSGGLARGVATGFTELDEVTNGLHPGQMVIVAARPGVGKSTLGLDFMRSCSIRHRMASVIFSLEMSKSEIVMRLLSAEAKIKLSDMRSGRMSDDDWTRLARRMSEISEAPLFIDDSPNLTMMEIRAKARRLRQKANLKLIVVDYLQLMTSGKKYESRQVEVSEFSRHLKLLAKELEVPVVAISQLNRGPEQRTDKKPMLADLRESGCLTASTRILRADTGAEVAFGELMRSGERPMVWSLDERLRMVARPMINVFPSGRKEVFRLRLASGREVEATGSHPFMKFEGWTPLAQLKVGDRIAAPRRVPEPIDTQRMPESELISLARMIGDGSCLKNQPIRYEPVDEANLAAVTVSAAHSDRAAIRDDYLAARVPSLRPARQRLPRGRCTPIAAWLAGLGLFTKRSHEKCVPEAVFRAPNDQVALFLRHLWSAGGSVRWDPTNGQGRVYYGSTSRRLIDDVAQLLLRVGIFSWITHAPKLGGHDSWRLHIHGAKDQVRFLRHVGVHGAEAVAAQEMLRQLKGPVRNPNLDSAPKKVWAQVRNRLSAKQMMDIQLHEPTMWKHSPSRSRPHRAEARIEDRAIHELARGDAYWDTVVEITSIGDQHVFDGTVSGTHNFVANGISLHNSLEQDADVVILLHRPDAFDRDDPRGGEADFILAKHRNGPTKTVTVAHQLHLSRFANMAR

[20] = reduced cellular PGC1a acetyl-lysine signal – cell-based, cherry-picked samples, dose response (AID 720514); type: functional;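 note: potency may reflect raised or lowered acetylation signal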
[21] = target: T6, Protein RecA (Mycobacterium tuberculosis, UniProt P9WHJ3); assay: Fluorescence Cell-Free Homogeneous Dose Retest to Identify Inhibitors of RecA-Intein Splicing Activity. [Related pubchem assays (depositor defined):AID2097, AID2223, AID489010, AID492950]; type: functional
T6 sequence (P9WHJ3 whole entry): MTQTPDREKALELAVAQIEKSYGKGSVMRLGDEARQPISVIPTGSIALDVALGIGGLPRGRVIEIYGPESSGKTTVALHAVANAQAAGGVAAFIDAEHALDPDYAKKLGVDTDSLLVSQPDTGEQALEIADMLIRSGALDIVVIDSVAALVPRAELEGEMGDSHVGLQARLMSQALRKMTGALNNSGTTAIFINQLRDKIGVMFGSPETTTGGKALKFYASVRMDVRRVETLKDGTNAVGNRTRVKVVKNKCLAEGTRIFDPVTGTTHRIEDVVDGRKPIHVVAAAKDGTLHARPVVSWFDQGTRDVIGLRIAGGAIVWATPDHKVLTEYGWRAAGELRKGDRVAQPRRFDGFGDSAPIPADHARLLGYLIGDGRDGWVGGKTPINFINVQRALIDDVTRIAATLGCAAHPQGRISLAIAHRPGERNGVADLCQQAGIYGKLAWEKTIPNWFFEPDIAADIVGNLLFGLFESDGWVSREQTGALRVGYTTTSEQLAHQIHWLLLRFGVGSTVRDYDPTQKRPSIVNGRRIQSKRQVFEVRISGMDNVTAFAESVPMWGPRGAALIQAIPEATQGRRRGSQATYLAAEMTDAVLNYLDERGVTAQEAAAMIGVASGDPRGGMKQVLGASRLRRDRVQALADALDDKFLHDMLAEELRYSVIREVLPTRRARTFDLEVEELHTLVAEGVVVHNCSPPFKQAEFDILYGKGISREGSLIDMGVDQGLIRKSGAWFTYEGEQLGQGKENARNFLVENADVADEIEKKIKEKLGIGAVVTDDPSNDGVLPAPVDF

[22] = target: T7, SUMO-activating enzyme (Homo sapiens, UniProt Q9UBT2); assay: blockers of SAE1/SAE2–UBC9 SUMO transfer – biochemical, HTRF, uHTS, primary screen (AID 2006); type: protein-complex assay
T7 sequence (Q9UBE0 whole entry): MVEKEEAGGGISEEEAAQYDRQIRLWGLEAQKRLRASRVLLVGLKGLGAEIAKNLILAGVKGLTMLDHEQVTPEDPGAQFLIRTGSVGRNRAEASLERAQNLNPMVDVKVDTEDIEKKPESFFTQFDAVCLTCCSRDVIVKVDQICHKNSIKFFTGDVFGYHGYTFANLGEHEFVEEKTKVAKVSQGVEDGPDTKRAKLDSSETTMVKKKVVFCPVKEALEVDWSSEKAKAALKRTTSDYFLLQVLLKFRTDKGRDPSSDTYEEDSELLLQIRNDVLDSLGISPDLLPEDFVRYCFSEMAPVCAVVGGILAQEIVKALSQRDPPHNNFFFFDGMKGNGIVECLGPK
T7 sequence (Q9UBT2 whole entry): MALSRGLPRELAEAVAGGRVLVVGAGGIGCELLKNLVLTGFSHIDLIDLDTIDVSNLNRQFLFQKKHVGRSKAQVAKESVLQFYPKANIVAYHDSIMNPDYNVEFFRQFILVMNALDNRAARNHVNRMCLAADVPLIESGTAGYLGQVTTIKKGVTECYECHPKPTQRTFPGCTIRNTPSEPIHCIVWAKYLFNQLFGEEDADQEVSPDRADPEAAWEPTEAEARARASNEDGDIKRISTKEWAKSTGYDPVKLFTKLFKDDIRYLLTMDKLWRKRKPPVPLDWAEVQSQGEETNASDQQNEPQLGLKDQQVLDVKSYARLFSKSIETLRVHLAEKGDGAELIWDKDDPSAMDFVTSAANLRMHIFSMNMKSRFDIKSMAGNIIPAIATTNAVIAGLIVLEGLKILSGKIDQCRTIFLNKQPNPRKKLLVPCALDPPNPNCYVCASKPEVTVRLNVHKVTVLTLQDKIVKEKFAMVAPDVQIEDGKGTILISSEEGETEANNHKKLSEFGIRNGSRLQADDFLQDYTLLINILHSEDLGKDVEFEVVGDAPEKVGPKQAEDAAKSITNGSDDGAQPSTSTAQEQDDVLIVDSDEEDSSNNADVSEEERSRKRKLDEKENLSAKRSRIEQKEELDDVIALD

[23] = target: T7, SUMO-activating enzyme; assay: blockers of UBC9-mediated SUMO conjugation – biochemical, AlphaScreen, SUMOylation inhibitor project, confirmation (AID 2018); type: functional
[24] = viability loss in THP-1 monocytes – THP-1 cells, cytotoxicity control for Vif-APOBEC3G degradation inhibitor project, dose response (AID 1117359); type: functional; conditions: THP-1
[25] = growth inhibition of yeast DHODH-expressing 3D7 parasites – SYBR Green, dry powder samples, dose response (AID 1159570); type: functional, cell-based;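 note: parasite growth measured after 72 hours of compound exposure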
[26] = toxicity to human HepG2 hepatoma cells – cell-based, plate reader, dry powder samples, cytotoxicity control, dose response (AID 1159569); type: functional;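 note: inhibitor potency with signal falling toward the positive control level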
[27] = P. falciparum Dd2 growth inhibitors, dose response, SYBR Green, cherry-picked samples (AID 1159567); type: functional, cell-based
[28] = growth inhibition of PfATP4-mutant resistant parasites – NITD609-resistant line, SYBR Green, dry powder, dose response (AID 1159571); type: functional, cell-based;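 note: parasites synchronized at ring stage by sorbitol before testing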
[29] = Dd2 malaria parasite growth inhibition potency – SYBR Green, dry powder samples, dose response (AID 1159566); type: functional, cell-based;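 note: potency for growth inhibition with lower SYBR green DNA signal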

Sequence of Glyceraldehyde-3-phosphate dehydrogenase (P04406 whole entry): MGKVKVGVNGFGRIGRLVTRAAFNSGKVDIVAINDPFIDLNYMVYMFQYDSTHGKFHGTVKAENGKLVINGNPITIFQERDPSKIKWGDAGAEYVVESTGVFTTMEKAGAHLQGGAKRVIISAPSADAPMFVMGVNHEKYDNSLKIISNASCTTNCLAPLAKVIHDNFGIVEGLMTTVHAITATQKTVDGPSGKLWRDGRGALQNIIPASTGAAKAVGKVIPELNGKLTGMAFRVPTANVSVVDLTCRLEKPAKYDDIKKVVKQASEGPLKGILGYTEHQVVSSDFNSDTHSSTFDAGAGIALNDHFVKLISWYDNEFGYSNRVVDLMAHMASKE

## Cc1ccc(Cl)c(N2C(=O)C(Cl)=C(N3CCN(C)CC3)C2=O)c1Cl
[1]
  IC50: > 100 µM (not active)
[2]
  IC50: 23.9 µM (active)
[3]
  IC50: 11.1 µM (active)

## O=C1c2cccc3cccc(c23)N1Cc1cccc(F)c1
[4]
  IC50: 6.16 µM (active)
[5]
  IC50: 16.6 µM (active)
[6]
  IC50: > 20 µM (inactive)

## O=C(NCc1ccccc1)/C(=C/c1ccc(OC(F)F)cc1)c1ccccc1
[7]
  CC50: 34.5 µM (active)

## CCC(NC(=O)Nc1ccc(O)cc1)(C(F)(F)F)C(F)(F)F
[8]
  IC50: 40.2 µM (inconclusive)

## O=C(Nc1ccccc1C(=O)O)c1ccc(NC(=O)c2ccc(Br)o2)cc1
[9]
  IC50: 35.4 µM (active)

## COc1cccc(N2C(=O)C(Cl)=C(N3CCN(CCOCCO)CC3)C2=O)c1
[1]
  IC50: > 100 µM (not active)
[2]
  IC50: 8.85 µM (active)
[3]
  IC50: 9.11 µM (active)

## CS(=O)(=O)N(CC(O)Cn1c2ccccc2c2ccccc21)c1ccccc1 (configuration not stated)
[9]
  IC50: 33 µM (active)

## Cc1cccc(C)c1NC(=O)Cn1c(=O)n(CCCC(=O)NC2CCN(Cc3ccccc3)CC2)c(=O)c2ccccc21
[4]
  IC50: 4.06 µM (active)
[5]
  IC50: 6.42 µM (active)
[6]
  IC50: > 20 µM (inactive)

## Cc1ccc(Nc2[nH]cnc3ncnc2-3)cc1Cl
[10]
  EC50: > 120 µM (not active)
[11]
  EC50: 0.604 µM (active)
[12]
  EC50: > 12 µM (not active)
[13]
  EC50: 0.268 µM (inconclusive)
[14]
  EC50: 0.745 µM (active)
[15]
  EC50: < 0.1 µM (active)

## c1ccc(CN2CCN(CCCNc3ccc4nnc(-c5ccccc5)n4n3)CC2)cc1
[16]
  IC50: > 79 µM (inactive)
[17]
  CC50: 35.6 µM (active)
[8]
  IC50: > 100 µM (active)

## O=S(=O)(c1ccccc1)c1ncc(C(F)(F)F)cc1Cl
[18]
  EC50: 15.9 µM (active)
[19]
  AC50: 18.4 µM (active)
[20]
  AC50: 11 µM (active)
[21]
  EC50: 3.16 µM (active)

## CCCCn1c(=O)[nH]c(=O)c2c1nc(-c1ccc(-c3ccc(F)cc3)o1)n2C
[22]
  IC50: > 100 µM (inactive)
[23]
  IC50: > 100 µM (inactive)

## CCCCOc1[nH]cnc2c3cc(OC)ccc3nc1-2
[10]
  EC50: < 0.1 µM (active)
[11]
  EC50: 0.239 µM (active)
[12]
  EC50: 0.403 µM (active)
[14]
  EC50: 0.274 µM (active)

## Cc1ccc(-c2cc(-c3ccc4c(c3)OCO4)c(C#N)c(N)n2)o1
[24]
  CC50: 24.7 µM (active)
[8]
  IC50: 30.5 µM (inconclusive)

## Cc1ccc(-c2cc(C(F)(F)F)c(C#N)c(O)n2)cc1
[9]
  IC50: 32.6 µM (active)

## CCOC(=O)c1s/c(=N\C(=O)c2ccc(C)c(C)c2)n(C)c1C
[11]
  EC50: 0.718 µM (active)
[12]
  EC50: 0.601 µM (active)
[13]
  EC50: < 0.1 µM (active)
[14]
  EC50: 0.543 µM (active)

## COc1ccc2c3c([nH]c2c1)[C@H](CO)N(Cc1ccncc1)CC31CN(Cc2ccc(-c3ccccn3)cc2)C1
[25]
  AC50: 3.42 µM (active)
[26]
  AC50: 43.3 µM (active)
[27]
  AC50: 2.36 µM (active)
[28]
  AC50: 2.8 µM (active)
[29]
  AC50: 2.97 µM (active)

## COc1ccc2c3c(n(C)c2c1)[C@H](CO)N(CC1CC1)CC31CN(C(=O)c2ccc3c(c2)OCO3)C1
[25]
  AC50: 1.24 µM (active)
[26]
  AC50: > 100 µM (inactive)
[27]
  AC50: 1.85 µM (active)
[28]
  AC50: 1.28 µM (active)
[29]
  AC50: 1.26 µM (active)
